From PMC11091967, “Silicon-Rhodamine Functionalized Evocalcet Probes Potently and Selectively Label Calcium Sensing Receptors In Vitro, In Vivo, and Ex Vivo” (ACS Pharmacology & Translational Science, 2024)
Where two headings read alike, the source gives them in different places.

What was measured:
[1] = Spectrofluorometric fluorescence in PBS and effect of pH; format: physicochemical; settings: PBS
Protocol: (§1) Spectrofluorometric measurements were carried out by using the Agilent Cary Eclipse instrument. The voltage of the photomultiplier tube (PMT) was set to 600 for EvoSiR4 and EvoSiR6, and for 500 for SiR (4). Fluorescence of the probes was measured at concentrations ranging from 30 to 3000 nM in PBS containing various amounts of bovine serum albumin (BSA) (Sigma, A7906). Quenching experiments for the calculation of BSA binding were performed by adding a 1:1 molar ratio of tannic acid dissolved in ddH2O (Sigma, 403040) to the solution prior to measuring fluorescence.

[2] = biological target: T1, bovine serum albumin (BSA) (Bos taurus, UniProt P02769); assay: Spectrofluorometric analysis of fluorogenicity upon BSA binding; format: physicochemical
T1 construct: purchased Sigma A7906
Protocol: as §1

[3] = test system: hair cells of the neuromasts within the lateral line organ; assay: In vivo labeling of neuromasts in zebrafish larvae; design: species or system zebrafish (Danio rerio); settings: 4–6 dpf larvae, neuromasts identified with DiAsp
Protocol: For the neuromast labeling experiments, wild-type 4–6 days post fertilization (dpf) zebrafish larvae were incubated in 200 μL of E3 medium containing different doses of the SiR probes (500–5000 nM), 2.5 μM 4-(4-diethylaminostyryl)-1-methyl-pyridinium-iodid (DiAsp, Sigma, D3418), which specifically labels hair cells in the lateral line in 0.5% DMSO for 30 min (35). Next, washing and anesthesia were achieved by placing the larvae in a 35 mm imaging dish (MolBiTec, Imaging dish 1.5) which contained 500 μL of E3 medium with 168 mg/L MS-222 (Tricaine Mehanesulfonate, Sigma) for 10 min. After removing the solution, fish were side-embedded in the imaging dish using 500 μL of 0.75% low-melting temperature agarose (Sigma, A4018). Wide-field imaging was done using the Zeiss Axio Observer fluorescence microscope (LD A-Plan 10× objective, NA = 0.25), and confocal imaging was done using a Zeiss LSM 800 confocal fluorescence microscope (LD LCI Plan-Apochromat 25× objective, NA = 0.8).

[4] = Photophysical characterization; format: physicochemical; design: λex / λem: unit not given here
human CaSR [5] = biological target: T2, human CaSR (Homo sapiens, UniProt P41180); assay: In vitro labeling of CaSR expressing (HCAR) and control (CCL39) cells, fluorescence microscopy; format: cell-based
T2 construct: host or cells: CCL39 hamster lung fibroblasts stably transfected (HCAR), Geneticin selection
T2 sequence (P41180 20-1078): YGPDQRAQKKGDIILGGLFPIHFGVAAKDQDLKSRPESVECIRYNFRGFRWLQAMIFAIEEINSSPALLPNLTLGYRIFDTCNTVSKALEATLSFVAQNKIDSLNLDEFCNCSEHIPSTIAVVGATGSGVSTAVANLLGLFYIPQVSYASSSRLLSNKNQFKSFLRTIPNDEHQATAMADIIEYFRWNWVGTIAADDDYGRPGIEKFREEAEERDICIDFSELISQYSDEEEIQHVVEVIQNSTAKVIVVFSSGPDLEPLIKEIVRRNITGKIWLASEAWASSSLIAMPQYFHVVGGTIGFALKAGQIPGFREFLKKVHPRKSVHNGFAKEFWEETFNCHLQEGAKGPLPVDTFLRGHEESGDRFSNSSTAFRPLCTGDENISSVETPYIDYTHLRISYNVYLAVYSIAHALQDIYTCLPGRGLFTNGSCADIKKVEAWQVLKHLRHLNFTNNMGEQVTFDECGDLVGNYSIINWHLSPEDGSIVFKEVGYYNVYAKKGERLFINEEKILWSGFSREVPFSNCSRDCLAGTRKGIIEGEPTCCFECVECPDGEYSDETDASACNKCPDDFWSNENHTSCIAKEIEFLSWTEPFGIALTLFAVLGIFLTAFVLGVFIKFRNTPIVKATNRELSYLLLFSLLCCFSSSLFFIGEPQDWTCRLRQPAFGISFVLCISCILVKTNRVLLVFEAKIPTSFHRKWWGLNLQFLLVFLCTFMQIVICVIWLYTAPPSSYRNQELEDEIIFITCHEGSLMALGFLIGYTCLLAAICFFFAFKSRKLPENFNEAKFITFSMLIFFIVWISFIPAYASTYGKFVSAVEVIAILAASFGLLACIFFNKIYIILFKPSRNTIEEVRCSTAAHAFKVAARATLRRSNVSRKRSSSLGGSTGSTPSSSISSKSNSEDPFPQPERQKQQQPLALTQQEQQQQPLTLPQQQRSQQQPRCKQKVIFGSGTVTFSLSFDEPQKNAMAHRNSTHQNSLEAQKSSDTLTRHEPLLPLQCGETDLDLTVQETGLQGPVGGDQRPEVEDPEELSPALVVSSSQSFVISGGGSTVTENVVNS
Protocol: HCAR (CaSR+) and CCL39 (CaSR−) cells were kindly obtained from Novartis AG (Basel, Switzerland) and validated in house. The cells were seeded into μ-slide 18 well plates (ibidi, 81816) at a density of 5000 cells per well and were incubated for 24 h under standard culturing conditions. As our preliminary data indicated considerable nonspecific labeling of dying cells and cellular debris, a viability staining was introduced to ensure probe specificity.[29] Thus, after washing twice with HBSS, cells were incubated in 10 μM Calcein AM solution containing 0.02% Pluronic F-127 and 0.1% DMSO for 45 min at 37 °C. The solution was then removed and washed twice in HBSS before the addition of the HBSS solution containing the SiR probes. All probe solutions were protected from light exposure and contained 0.5% DMSO and various concentrations of BSA depending on the experiment. Incubation with the fluorescent probes was 20 min long, after which a single washing step was introduced with HBSS before imaging. Images of the cells (Calcein: FITC channel, SiR: Cy5 channel) were acquired with a Nikon Eclipse TI2 inverted wide-field fluorescence microscope using a 60× magnification oil immersion objective (Nikon CFI Plan Fluor, 60×, NA = 0.85). For each well, a minimum of 3 images were acquired. For each image, cells were segmented to generate labels on the FITC channel postacquisition using the deep neural network-based Cellpose package in Python 3.9 (model_type: cyto2, diameter: 200, flow_threshold: 0.4).[30] To normalize pixel intensity values across images, for each image, a background value was calculated by taking the average pixel intensity value of the pixels in which no cellular label was present and were negative for the EvoSiR label (triangle thresholding used). For each cell, the skewness of the value distribution and the mean of the Cy5 pixel intensities were calculated. The procedure for evaluating the long-term labeling (72 h) of EvoSiR probes on CCL39 and HCAR cells was similar, with the following modifications: images were retrieved using 10× magnification air objectives (Nikon CFI Plan Fluor 10×, NA = 0.3), in the neural network model, the diameter parameter was set to 30, and only the mean Cy5 pixel intensities per cell object were retrieved.

human CaSR [6] = biological target: T2, human CaSR; assay: FLIPR-based functional CaSR calcium assay in HCAR cells; format: cell-based; settings: HCAR cells
Protocol: Hamster lung fibroblasts (CCL39, CaSR−) expressing the recombinant human CaSR (HCAR, CaSR+) and nontransected controls were kindly provided by Novartis AG and were kept in standard culturing conditions (37 °C, 5% CO2) in 1/2 DMEM (Roth, 9005.1)—1/2 F-12 (Sigma, N4888–500 mL) media containing 10% FBS. Media for the HCAR cells contained 500 μg/mL Geneticin as a selection antibiotic (Thermo Fisher, 10131035). Upon reaching 90–95% confluence, cells were detached and seeded into 96-well plates (PerkinElmer, 6005182) at a concentration of 35,000 cells per well and were incubated for 24 h before the experiment. For the functional CaSR calcium assay, cells were first washed twice with HBSS medium (Sigma, H6648), and were incubated in HBSS containing 5 μM Fluo-8 AM and 0.1 mM CaCl2 for 30 min at 37 °C. Calcium transients were measured upon addition of 0.5 mM CaCl2 with the FLIPR Tetra high-throughput cellular screening systems using the 470–495 nm LED excitation and 515–575 nm bandpass emission filters. Probe solutions contained 0.5% DMSO and were added to the cells 10 min prior to the measurement. dF/F0 values were calculated as a change in the peak fluorescence value of the transient for the first 200 data points normalized to the background fluorescence of the well. […] Both cells were washed with HBSS medium twice and then incubated for 10 min at 37 °C in HBSS medium containing 0.1% BSA in the presence or absence of 10 μM evocalcet. Upon the removal of media, cells were incubated in various concentrations of EvoSiR4 and EvoSiR6 in HBSS containing 0.1% BSA for 30 min at 37 °C and were subsequently washed 3 times with 0.1% BSA and resuspended in DMSO before the fluorometric measurement. The fluorescence was measured using a Tecan GENios pro microplate reader with the following parameters: λex = 612 nm, λem = 670 nm, gain = 50 AU. Data for the EvoSiR probes and the evocalcet competition is reported as CaSR-specific fluorescence, which was calculated by dividing the absolute fluorescence of the HCAR cells with the absolute fluorescence of the CCL39 cells for each concentration.

[7] = Fluorescence quenching of SiR probes by tannic acid, spectrofluorometer; format: physicochemical
Protocol: as §1

T1 sequence (P02769 25-607): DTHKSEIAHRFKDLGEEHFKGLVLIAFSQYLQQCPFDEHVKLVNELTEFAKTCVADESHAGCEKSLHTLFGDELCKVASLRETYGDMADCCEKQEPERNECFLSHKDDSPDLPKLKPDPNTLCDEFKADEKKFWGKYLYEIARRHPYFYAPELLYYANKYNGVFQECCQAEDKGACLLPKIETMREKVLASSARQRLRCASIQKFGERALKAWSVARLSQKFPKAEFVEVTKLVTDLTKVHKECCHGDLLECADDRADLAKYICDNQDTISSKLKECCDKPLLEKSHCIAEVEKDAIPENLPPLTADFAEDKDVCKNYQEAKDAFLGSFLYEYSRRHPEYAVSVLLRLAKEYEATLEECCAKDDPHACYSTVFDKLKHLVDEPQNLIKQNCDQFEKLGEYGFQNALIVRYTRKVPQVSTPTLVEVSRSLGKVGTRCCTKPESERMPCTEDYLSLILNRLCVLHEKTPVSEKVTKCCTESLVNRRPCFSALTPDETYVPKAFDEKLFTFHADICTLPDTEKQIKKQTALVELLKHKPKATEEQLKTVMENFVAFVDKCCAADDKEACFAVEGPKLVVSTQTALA

**Q.** Which “absolute fluorescence in PBS relative to EvoSiR4 and EvoSiR6” value [1] does the source give for `Cc1cc(C(=O)NCCCCN)ccc1C1=C2C=CC(=[N+](C)C)C=C2[Si](C)(C)c2cc(N(C)C)ccc21` [SiR (4)] here?
**A.** Its value is 10 times.

**Q.** And the “increase in absolute fluorescence upon addition of 1% BSA” value ([2]; 1% BSA compared to PBS)?
**A.** The value was “no effect”.

**Q.** And the “change in absolute fluorescence in response to BSA” value ([2]; BSA 0.01–0.1%)?
**A.** The value was “no significant change”.

**Q.** And the “normalized fluorescence of the neuromasts to the background fluorescence, mean and standard deviation” value [3]?
**A.** Its value is 1.28 ± 0.41.

**Q.** What about the “fluorescence lifetime τ” value [4] of the same molecule?
**A.** The value was 1.92 ± 0.733 ns.

**Q.** What about the “quantum yield Φ” value ([4]; 94% ethanol, 750 nM, relative to Rhodamine B) of the same molecule?
**A.** Its value is 0.347.

**Q.** What about the λem ([4]; Table 1) of the same molecule?
**A.** Its λem is 670.

**Q.** And the λex ([4]; Table 1)?
**A.** Its λex is 650.

**Q.** And the “extinction coefficient ε” value ([4]; absorbance at 150–1350 nM, 1 cm cuvette)?
**A.** Its value is 7051 M^–1 cm^–1.

**Q.** And the “fold increase in skewness of pixel intensity distribution, CaSR+ (HCAR) vs CaSR- (CCL39) cells” value (human CaSR [5]; 500 nM probe, 0.1% BSA)?
**A.** The value was “no significant difference”.

**Q.** For `C[C@@H](N[C@H]1CCN(c2ccc(CC(=O)NCCCCNC(=O)OC(C)(C)C)cc2)C1)c1cccc2ccccc12` [compound 1], which EC50 (human CaSR [6]; response to addition of 0.5 mM CaCl2, no BSA, read-out: EC50, positive allosteric modulation of CaSR activity) is on record?
**A.** The EC50 was 0.101 ± 0.006 µM.

**Q.** For `[Ca+2].[Cl-].[Cl-]` [extracellular calcium, CaCl2, reference compound], which EC50 (human CaSR [6]; dF/F0, read-out: EC50 of intracellular calcium release in response to extracellular calcium) is on record?
**A.** The EC50 was 252 ± 10 µM.

**Q.** What does the source list for tannic acid [reference compound]?
**A.** IC50 of quenching the fluorescence of EvoSiR probes and SiR (4) [7]: low nanomolar ranges; increase in signal-to-noise ratio of EvoSiR4 labeling (human CaSR [5]; 100 nM tannic acid, CaSR+ cells labeled with 500 nM EvoSiR4): 40%
